# In ChEMBL document CHEMBL1150794, “Vibrio splendidus as the source of plasmid-mediated QnrS-like quinolone resistance determinants” (2007):
# Test system: Escherichia coli
# Test: Antimicrobial activity against Escherichia coli TOP10 harbouring p0 plasmid expressing pCR-BluntII-TOPO
# Format: functional
row,SMILES,MIC
1,CCn1cc(C(=O)O)c(=O)c2cc(F)c(N3CCNCC3)cc21 [NORFLOXACIN],0.03 µg/mL
2,CCn1cc(C(=O)O)c(=O)c2ccc(C)nc21 [NALIDIXIC ACID],1 µg/mL

# Test system: Escherichia coli
# Test: Antimicrobial activity against Escherichia coli TOP10 harbouring pVS1 expressing quinolone resistant Vibrio splendidus 12B01 QnrVS1 gene
# Format: functional
row,SMILES,MIC
1,CCn1cc(C(=O)O)c(=O)c2cc(F)c(N3CCNCC3)cc21 [NORFLOXACIN],0.5 µg/mL
2,CCn1cc(C(=O)O)c(=O)c2ccc(C)nc21 [NALIDIXIC ACID],8 µg/mL
3,C[C@@H]1CN(c2c(F)c(N)c3c(=O)c(C(=O)O)cn(C4CC4)c3c2F)C[C@H](C)N1 [SPARFLOXACIN],0.12 µg/mL
4,CC1COc2c(N3CCN(C)CC3)c(F)cc3c(=O)c(C(=O)O)cn1c23 (configuration not stated) [OFLOXACIN],0.25 µg/mL
5,COc1c(N2C[C@@H]3CCCN[C@@H]3C2)c(F)cc2c(=O)c(C(=O)O)cn(C3CC3)c12 [MOXIFLOXACIN],0.12 µg/mL

# Test system: Escherichia coli
# Test: Antimicrobial activity against Escherichia coli TOP10
# Format: functional
row,SMILES,MIC
1,CCn1cc(C(=O)O)c(=O)c2cc(F)c(N3CCNCC3)cc21 [NORFLOXACIN],0.03 µg/mL
2,O=C(O)c1cn(C2CC2)c2cc(N3CCNCC3)c(F)cc2c1=O [CIPROFLOXACIN],< 0.01 µg/mL
3,CCn1cc(C(=O)O)c(=O)c2ccc(C)nc21 [NALIDIXIC ACID],1 µg/mL
4,C[C@@H]1CN(c2c(F)c(N)c3c(=O)c(C(=O)O)cn(C4CC4)c3c2F)C[C@H](C)N1 [SPARFLOXACIN],< 0.01 µg/mL
5,COc1c(N2C[C@@H]3CCCN[C@@H]3C2)c(F)cc2c(=O)c(C(=O)O)cn(C3CC3)c12 [MOXIFLOXACIN],< 0.01 µg/mL

# Test system: Escherichia coli
# Test: Antimicrobial activity against Escherichia coli TOP10 harbouring pS1 plasmid expressing quinolone resistant QnrS1 gene
# Format: functional
row,SMILES,MIC
1,CCn1cc(C(=O)O)c(=O)c2cc(F)c(N3CCNCC3)cc21 [NORFLOXACIN],1 µg/mL
2,CCn1cc(C(=O)O)c(=O)c2ccc(C)nc21 [NALIDIXIC ACID],8 µg/mL
3,C[C@@H]1CN(c2c(F)c(N)c3c(=O)c(C(=O)O)cn(C4CC4)c3c2F)C[C@H](C)N1 [SPARFLOXACIN],0.25 µg/mL
4,COc1c(N2C[C@@H]3CCCN[C@@H]3C2)c(F)cc2c(=O)c(C(=O)O)cn(C3CC3)c12 [MOXIFLOXACIN],0.25 µg/mL

# Test system: Escherichia coli
# Test: Antimicrobial activity against Escherichia coli TOP10 harbouring pS2 plasmid expressing quinolone resistant QnrS2 gene
# Format: functional
row,SMILES,MIC
1,CCn1cc(C(=O)O)c(=O)c2cc(F)c(N3CCNCC3)cc21 [NORFLOXACIN],1 µg/mL
2,CCn1cc(C(=O)O)c(=O)c2ccc(C)nc21 [NALIDIXIC ACID],8 µg/mL
3,C[C@@H]1CN(c2c(F)c(N)c3c(=O)c(C(=O)O)cn(C4CC4)c3c2F)C[C@H](C)N1 [SPARFLOXACIN],0.25 µg/mL
4,COc1c(N2C[C@@H]3CCCN[C@@H]3C2)c(F)cc2c(=O)c(C(=O)O)cn(C3CC3)c12 [MOXIFLOXACIN],0.25 µg/mL

# Test system: Vibrio splendidus
# Test: Antimicrobial activity against Vibrio splendidus LGP32 expressing plasmid-mediated QnrS-like quinolone resistance determinants
# Format: functional
row,SMILES,MIC
1,CCn1cc(C(=O)O)c(=O)c2cc(F)c(N3CCNCC3)cc21 [NORFLOXACIN],0.5 µg/mL
2,O=C(O)c1cn(C2CC2)c2cc(N3CCNCC3)c(F)cc2c1=O [CIPROFLOXACIN],0.25 µg/mL
3,CCn1cc(C(=O)O)c(=O)c2ccc(C)nc21 [NALIDIXIC ACID],4 µg/mL
4,C[C@@H]1CN(c2c(F)c(N)c3c(=O)c(C(=O)O)cn(C4CC4)c3c2F)C[C@H](C)N1 [SPARFLOXACIN],0.5 µg/mL
5,CC1COc2c(N3CCN(C)CC3)c(F)cc3c(=O)c(C(=O)O)cn1c23 (configuration not stated) [OFLOXACIN],0.5 µg/mL
6,COc1c(N2C[C@@H]3CCCN[C@@H]3C2)c(F)cc2c(=O)c(C(=O)O)cn(C3CC3)c12 [MOXIFLOXACIN],0.25 µg/mL

# Test system: Vibrio splendidus
# Test: Antimicrobial activity against Vibrio splendidus 12B01 expressing plasmid-mediated QnrS-like quinolone resistance determinants
# Format: functional
row,SMILES,MIC
1,CCn1cc(C(=O)O)c(=O)c2cc(F)c(N3CCNCC3)cc21 [NORFLOXACIN],0.25 µg/mL
2,O=C(O)c1cn(C2CC2)c2cc(N3CCNCC3)c(F)cc2c1=O [CIPROFLOXACIN],0.25 µg/mL
3,CCn1cc(C(=O)O)c(=O)c2ccc(C)nc21 [NALIDIXIC ACID],2 µg/mL
4,C[C@@H]1CN(c2c(F)c(N)c3c(=O)c(C(=O)O)cn(C4CC4)c3c2F)C[C@H](C)N1 [SPARFLOXACIN],0.25 µg/mL
5,CC1COc2c(N3CCN(C)CC3)c(F)cc3c(=O)c(C(=O)O)cn1c23 (configuration not stated) [OFLOXACIN],0.25 µg/mL
6,COc1c(N2C[C@@H]3CCCN[C@@H]3C2)c(F)cc2c(=O)c(C(=O)O)cn(C3CC3)c12 [MOXIFLOXACIN],0.25 µg/mL

# Test system: Escherichia coli
# Test: Antimicrobial activity against Escherichia coli TOP10 harbouring pVS2 expressing quinolone resistant Vibrio splendidus LGP32 QnrVS2 gene
# Format: functional
row,SMILES,MIC
1,CCn1cc(C(=O)O)c(=O)c2cc(F)c(N3CCNCC3)cc21 [NORFLOXACIN],0.5 µg/mL
2,CCn1cc(C(=O)O)c(=O)c2ccc(C)nc21 [NALIDIXIC ACID],8 µg/mL
3,C[C@@H]1CN(c2c(F)c(N)c3c(=O)c(C(=O)O)cn(C4CC4)c3c2F)C[C@H](C)N1 [SPARFLOXACIN],0.12 µg/mL
4,CC1COc2c(N3CCN(C)CC3)c(F)cc3c(=O)c(C(=O)O)cn1c23 (configuration not stated) [OFLOXACIN],0.25 µg/mL
5,COc1c(N2C[C@@H]3CCCN[C@@H]3C2)c(F)cc2c(=O)c(C(=O)O)cn(C3CC3)c12 [MOXIFLOXACIN],0.12 µg/mL
